Patent US20240116883A1, “CANNABINOID DERIVATIVES AND THEIR USE THE TREATMENT OF INFLAMMATION AND/OR PAIN AND/OR OBESITY” (Yissum Research Development Company of The Hebrew …, priority 2020, published 2024)

What was measured:
[1] = system: swelling, pain, TNF-alpha; assay: biological activity assays of FIGS. 1-4 (swelling, pain, TNF-alpha, weight bearing); format: in vivo, mice; conditions: summary of FIGS. 1-4; varied doses, compared to CBD/CBG
Protocol: After an additional 90 minutes, the mice were decapitated, and trunk blood was collected for determination of TNF-α levels. […]
TNF-α determination assay: TNF-α (pg/ml) in cell culture supernatants or in mouse blood plasma was determined by the “sandwich” ELISA technique. ELISA reagents were used according to the manufacturer's protocol (R & D Systems).

[2] = system: TPA induced erythema of mouse ear; conditions: application of a 100 pg/ml solution; cited from earlier work
[3] = system: phenylbenzoquinone writhing; conditions: mice; versus aspirin; cited from earlier work
cannabinoid receptor CB2 = cannabinoid receptor CB2 (Homo sapiens, UniProt P34972); conditions: cited from earlier work
Sequence of cannabinoid receptor CB2 (P34972 whole entry): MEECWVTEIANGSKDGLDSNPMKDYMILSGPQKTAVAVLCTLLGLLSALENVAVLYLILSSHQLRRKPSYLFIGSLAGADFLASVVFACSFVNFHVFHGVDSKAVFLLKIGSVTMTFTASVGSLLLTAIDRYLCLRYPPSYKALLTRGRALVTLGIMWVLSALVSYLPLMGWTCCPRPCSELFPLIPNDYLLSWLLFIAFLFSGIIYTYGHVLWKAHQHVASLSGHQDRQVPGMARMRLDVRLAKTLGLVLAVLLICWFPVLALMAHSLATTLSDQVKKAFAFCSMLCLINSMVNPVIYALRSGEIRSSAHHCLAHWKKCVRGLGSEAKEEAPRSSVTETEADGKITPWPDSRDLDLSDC

Q: With `CCCCCc1cc(O)c([C@@H]2C=C(C)CC[C@H]2C(C)C)c(O)c1C` [HUM-217, (1′S,2′S)-2′-isopropyl-3,5′-dimethyl-4-pentyl-1′,2′,3′,4′-tetrahydro-[1,1′-biphenyl]-2,6-diol] as the compound, how does the anti-inflammatory activity [1] read?
A: notable anti-inflammatory activity

Q: Which anti-inflammatory activity [1] does the source give for `CCCCCc1cc(O)c(C/C=C(\C)CCC=C(C)C)c(O)c1C` [HUM-218, (E)-2-(3,7-dimethylocta-2,6-dien-1-yl)-4-methyl-5-pentylbenzene-1,3-diol] here?
A: notable anti-inflammatory activity

Q: For `C=C(C)[C@@H]1CCC(C)=C[C@H]1c1c(O)cc(CCCCC)cc1O` [CBD, Cannabidiol], which “inhibition of the inflammation response” value [2] is on record?
A: 92%

Q: What about the “analgesic potency compared to aspirin” value [3] of the same compound?
A: much more potent than aspirin

Q: What about the “binding to CB2” value (cannabinoid receptor CB2) of the same compound?
A: does not bind

Q: Which anti-inflammatory activity [1] does the source give for `C=C(C)[C@@H]1CCC(C)=C[C@H]1c1c(O)cc(CCCCC)c(C)c1O` [HUM-216, (1′R,2′R)-3,5′-dimethyl-4-pentyl-2′-(prop-1-en-2-yl)-1′,2′,3′,4′-tetrahydro-[1,1′-biphenyl]-2,6-diol] here?
A: notable anti-inflammatory activity

Q: Which anti-inflammatory activity [1] does the source give for `CCCCCCC(C)(C)c1cc(O)c(C/C=C(\C)CCC=C(C)C)c(OC)c1` [HUM-223, (E)-2-(3,7-dimethylocta-2,6-dien-1-yl)-3-methoxy-5-(2-methyloctan-2-yl)phenol] here?
A: notable anti-inflammatory activity
